Values joined by “and” are separate entries in the source; they are usually repeats but may differ in a detail not shown here. Equal entries are not always repeated. Where two headings read alike, the source gives them in different places.
Assays:
[1] = system: chronic subdural hematoma; settings: for Hematoma amount in the fourth week, average value: treatment for one month, conservatively successful patients
[2] = system: VEGF, TGF-β, MMP-9 and Ang-1/2; settings: small dose of atorvastatin, recent animal experiments; cited from earlier work
[3] = system: VEGF, TGF-β, MMP-9 and Ang-1/2; test: Rat subdural hematoma model: factor expression in hematoma capsule/cavity (real-time PCR, ELISA); type: in vivo
Description: In FIG. 1 to FIG. 9, “#” denotes a statistically significant difference in the small-dose group and the large-dose group as compared with the control group; and “*” denotes a statistically significant difference between the small-dose group and the large-dose group.

[4] = large-dose 5 mg/kg/day, 28 rats
[5] = small-dose 3 mg/kg/day, 30 rats
[6] = large-dose group 8 mg/kg/day oral, 2 days
[7] = large-dose group 8 mg/kg/day, 7 days after the operation
[8] = small-dose group 3 mg/kg/day oral, 2 days
[9] = small-dose group 3 mg/kg/day, 7 days after the operation, vs control and large-dose group

With `C[C@@H]1C[C@H]2[C@@H]3CCC4=CC(=O)C=C[C@]4(C)[C@@]3(F)[C@@H](O)C[C@]2(C)[C@@]1(O)C(=O)CO` [dexamethasone] the “Reduced hematoma amount in the fourth week, average value” ([1]; small dose dexamethasone alone) was 24.71 mL, the “patients with no therapeutic effect, transferred to surgical treatment” value ([1]; small dose dexamethasone alone, among the 15 patients) was 5 patients and the “average hematoma absorption rate” value ([1]; small dose dexamethasone alone, fourth week / one month after administration) was 35%. The “Hematoma amount in the fourth week” value ([1]; small dose dexamethasone alone, oral, 0.75 mg 3x/day wk 1, 2x/day wk 2-3, 1x/day wk 4, individual patients (15)) was 40.95 ml and 80.00 ml (2×) and 36.30 ml and 32.73 ml and 96.53 ml and 39.88 ml and 30.25 ml and 35.00 ml and 37.00 ml, the “Hematoma amount in the fourth week, average value” ([1]; small dose dexamethasone alone) was 50.86 ± 24.52 mL and 50.86 mL and the “Reduced hematoma amount in the fourth week” value ([1]; small dose dexamethasone alone, individual patients (15)) was 20.93 mL and 25.00 mL and 39.64 mL and 23.90 mL and 8.13 mL and 38.43 mL and 24.08 mL and 36.40 mL and 13.60 mL and 17.00 mL.
In the case of `CC(C)c1c(C(=O)Nc2ccccc2)c(-c2ccccc2)c(-c2ccc(F)cc2)n1CC[C@@H](O)C[C@@H](O)CC(=O)O` [atorvastatin], the “local TNF-α and IL-6 gene and protein levels in the hematoma capsule” value [2] is listed as “significantly reduce”, the Injury infection (subcutaneous hematoma; [4]) is listed as 4 and the “Rats died in the treatment” value (subcutaneous hematoma; [4]) is listed as 7. For the same molecule, the death rate (subcutaneous hematoma; large-dose group compared with small-dose atorvastatin group) was “significantly improved”, the hormone-caused complications (subcutaneous hematoma; rat, in vivo) was “significantly increased” and the Poor condition (subcutaneous hematoma; rat, in vivo, 3 mg/kg/day) was 3. For the same molecule, the Poor condition (subcutaneous hematoma; rat, in vivo, 5 mg/kg/day) was 6, the Injury infection (subcutaneous hematoma; [5]) was 1 and the “Rats died in the treatment” value (subcutaneous hematoma; [5]) was 2. The “Hematoma amount in the fourth week, average value” ([1]; atorvastatin alone) was 28.29 ± 29.47 mL and 28.29 mL, the “expression of MMP-9” value [3, 6] was “significantly higher” and the “expression of TGFβ” value [3, 6] was “significantly higher”. The “expression of VEGF” value [3, 6] was “significantly higher”, the “expression of Ang2” value [3, 7] was “high expressions” and the “expression of MMP-9” value [3, 7] was “high expressions”. For the same molecule, the “expression of TGF-β” value [3, 7] was “high expressions”, the “expression of VEGF” value [3, 7] was “high expressions” and the “mRNA expression of hematoma capsule Ang1” value [3, 8] was “significantly higher”. The “mRNA expression of hematoma capsule VEGF” value [3, 8] was “significantly higher”, the Ang1 [3, 9] was “significantly higher” and the “expression level of MMP-9” value [3, 9] was “significantly lower”. The “expression level of VEGF” value [3, 9] was “significantly lower”.

— US10646496B2, “Joint application of statin and adrenocortical hormone for treating chronic subdural hematoma” (priority 2016, dated 2020)
